Test results published in the OligoGym collection.
Several values for one entry are separate records, joined by “and”; a condition that tells them apart may be missing. Equal values may be shown once. After the bases stand the sugars from the 5' end (letter, count) and the backbone: PS all phosphorothioate, else s phosphorothioate and o phosphodiester by linkage. Methylation of C is not given here. e = 2'-O-(2-methoxyethyl) (MOE); k = constrained ethyl (cEt); d = 2'-deoxy (DNA)

Target: APOL1
Details: ASO

Sequence | target mRNA inhibition (A431, 2 µM) [%] | target mRNA inhibition (A431, 0.0625 µM) | target mRNA inhibition (A431, 0.25 µM) | target mRNA inhibition (A431, 1 µM) | target mRNA inhibition (A431, 0.0156 µM) [%] | target mRNA inhibition (A431, 0.04 µM) [%]
ATTCTCATGGTACAGG (sugars kkddddkdkdkddddd, PS) | 84 |  |  |  |  | 
ATTCTCATGGTACAGG (sugars kkkddddkdkdkdddd, PS) | 81 |  |  |  |  | 
ATTCTGTGTGCTCACT (sugars k4 d9 k3, PS) |  | 65% | 80% | 92% |  | 
ATTGGCTCAGTGACCC (sugars k4 d9 k3, PS) |  |  | 72% and 76% | 88% and 86% |  | 
ATTTCTTGATGTGGTG (sugars kkddddkekekkdddd, PS) | 69 |  |  |  |  | 
CAAGGTTGTCCAGAGC (sugars k4 d9 k3, PS) |  | 31% | 58% | 64% |  | 
CACATCATTGGGTTAT (sugars k2 d4 e3 k2 d5, PS) | 86 |  |  |  |  | 
CACATCATTGGGTTAT (sugars kkddddkdkdkddddd, PS) | 79 |  |  |  |  | 
CACCTGTTCACCGCTT (sugars k4 d9 k3, PS) |  | 41% | 67% | 87% |  | 
CACTTGAGTCATTTGC (sugars k4 d9 k3, PS) |  | 37% | 73% | 86% |  | 
CACTTTACATGCACGA (sugars k4 d9 k3, PS) |  | 26% | 65% | 85% |  | 
CACTTTATACCAGTGT (sugars kkddddekekeddddd, PS) | 0 |  |  |  |  | 
CAGTTCCCATTTTTCC (sugars k4 d9 k3, PS) |  | 62% | 83% | 94% |  | 
CAGTTTTGTAAGTGCA (sugars k3 d4 k3 e1 d5, PS) | 92 |  |  |  |  | 
CAGTTTTGTAAGTGCA (sugars k3 d5 k3 d5, PS) | 97 |  |  |  |  | 
CAGTTTTGTAAGTGCA (sugars kkddddekekeddddd, PS) | 91 |  |  |  |  | 
CAGTTTTGTAAGTGCA (sugars kkddddkekekddddd, PS) | 91 |  |  |  |  | 
CAGTTTTGTAAGTGCA (sugars kkddddkekekkdddd, PS) | 18 |  |  |  |  | 
CATTCAGAATTTCCAC (sugars k3 d5 k3 d5, PS) | 94 |  |  |  |  | 
CATTCAGAATTTCCAC (sugars kdddddkekekddddd, PS) | 67 |  |  |  |  | 
CATTCAGAATTTCCAC (sugars kkdddddkekeddddd, PS) | 84 |  |  |  |  | 
CATTCAGAATTTCCAC (sugars kkddddkdkdkddddd, PS) | 84 |  |  |  |  | 
CATTCAGAATTTCCAC (sugars kkkddddkdkdkdddd, PS) | 88 |  |  |  |  | 
CATTCAGAATTTCCAC (sugars kkkddddkekekdddd, PS) | 65 |  |  |  |  | 
CCACATTTGAGATTAT (sugars k4 d9 k3, PS) |  | 37% | 72% | 90% |  | 

Sequence | target mRNA inhibition (A431, 2 µM) [%] | target mRNA inhibition (A431, 0.0625 µM) | target mRNA inhibition (A431, 0.25 µM) | target mRNA inhibition (A431, 1 µM) | target mRNA inhibition (A431, 0.0156 µM) [%] | target mRNA inhibition (A431, 0.04 µM) [%]
CCAGCAAAGACAAGAA (sugars k4 d9 k3, PS) |  | 9% and 0% | 49% and 30% | 64% and 55% and 50% |  | 
CCCCTGCCAGGCATAT (sugars k4 d9 k3, PS) |  | 22% | 42% | 44% |  | 
CCTTAATGTAAATTCC (sugars k4 d9 k3, PS) |  | 32% | 61% | 80% |  | 
CCTTACTGCAGTTTCA (sugars k4 d9 k3, PS) |  | 47% | 79% | 91% |  | 
CGATTGTCTTGTTTTT (sugars k4 d9 k3, PS) |  | 70% and 79% | 90% and 88% | 97% and 94% |  | 
CGCAATGCTGACTTGG (sugars k2 d4 e4 k2 d4, PS) | 68 |  |  |  |  | 
CGTCAATATATTCTTT (sugars k2 d4 e3 k2 d5, PS) | 81 |  |  |  |  | 
CGTCAATATATTCTTT (sugars k3 d5 k3 d5, PS) | 94 | 56% and 62% | 84% and 87% | 93% | 38 | 
CGTCAATATATTCTTT (sugars kddddkekekeddddd, PS) | 96 | 46% | 78% | 90% | 0 | 
CGTCAATATATTCTTT (sugars kekddddeekkddddd, PS) | 93 |  |  |  |  | 
CGTCAATATATTCTTT (sugars kkddddkekekkdddd, PS) | 95 | 36% | 70% | 88% | 3 | 
CGTGTTATATTTGATC (sugars kkddddkekekddddd, PS) | 88 |  |  |  |  | 
CTAATTTTCTGACTGT (sugars k3 d4 k3 e1 d5, PS) | 99 | 69% | 88% | 99% and 96% | 35 | 59
CTAATTTTCTGACTGT (sugars kkddddkekekddddd, PS) | 83 |  |  |  |  | 
CTGTTCTAACTCTTGG (sugars k2 d4 e3 k2 d5, PS) | 93 |  |  |  |  | 
CTGTTCTAACTCTTGG (sugars kkkddddkekekdddd, PS) | 88 |  |  |  |  | 
CTTGTTTTATGGAGTC (sugars k4 d9 k3, PS) |  | 85% and 91% | 97% | 99% |  | 
CTTTAAACTCAGGTGA (sugars k2 d4 e3 k2 d5, PS) | 92 | 40% | 61% | 85% | 19 | 
CTTTAAACTCAGGTGA (sugars kdddddkekekddddd, PS) | 77 |  |  |  |  | 
CTTTAAACTCAGGTGA (sugars kkddddekekeddddd, PS) | 91 |  |  |  |  | 
CTTTAAACTCAGGTGA (sugars kkddddkekekddddd, PS) | 82 |  |  |  |  | 
CTTTATACCAGTGTCT (sugars k3 d4 k3 e1 d5, PS) | 95 | 54% | 78% | 91% | 19 | 
CTTTATACCAGTGTCT (sugars kdddddkekekddddd, PS) | 89 |  |  |  |  | 
CTTTATACCAGTGTCT (sugars kddddkekekeddddd, PS) | 92 |  |  |  |  | 
CTTTATACCAGTGTCT (sugars kkddddkekekkdddd, PS) | 87 |  |  |  |  | 

Sequence | target mRNA inhibition (A431, 2 µM) [%] | target mRNA inhibition (A431, 0.0625 µM) | target mRNA inhibition (A431, 0.25 µM) | target mRNA inhibition (A431, 1 µM) | target mRNA inhibition (A431, 0.0156 µM) [%] | target mRNA inhibition (A431, 0.04 µM) [%]
CTTTATACCAGTGTCT (sugars kkkddddkekeddddd, PS) | 94 |  |  |  |  | 
CTTTATACCAGTGTCT (sugars kkkddddkekekdddd, PS) | 76 |  |  |  |  | 
GAAAATATCAGAGTGT (sugars k4 d9 k3, PS) |  | 29% | 68% | 90% |  | 
GAACGCAATGCTGACT (sugars kkddddkekekddddd, PS) | 78 |  |  |  |  | 
GAAGATTGGCTCTGGC (sugars kdddddkekekddddd, PS) | 44 |  |  |  |  | 
GAAGATTGGCTCTGGC (sugars kkdddddkekeddddd, PS) | 70 |  |  |  |  | 
GAAGATTGGCTCTGGC (sugars kkddddkdkdkddddd, PS) | 79 |  |  |  |  | 
GAAGCTTTAAACTCAG (sugars k4 d9 k3, PS) |  | 41% | 65% | 82% |  | 
GAAGCTTTAAACTCAG (sugars kkddddekekeddddd, PS) | 62 |  |  |  |  | 
GAAGCTTTAAACTCAG (sugars kkkddddkekekdddd, PS) | 47 |  |  |  |  | 
GAATTATGGAATTGCA (sugars k2 d4 e3 k2 d5, PS) | 94 |  |  |  |  | 
GAATTATGGAATTGCA (sugars kkdddddkekeddddd, PS) | 92 | 38% | 75% | 86% | 17 | 
GACTTGTTTTATGGAG (sugars k4 d9 k3, PS) |  | 75% | 88% | 92% |  | 
GAGTATTGTTTTTGTG (sugars k2 d4 e3 k2 d5, PS) | 97 | 72% | 91% | 96% | 38 | 
GAGTATTGTTTTTGTG (sugars kdddddkekekddddd, PS) | 90 |  |  |  |  | 
GAGTATTGTTTTTGTG (sugars kddddkekekeddddd, PS) | 94 |  |  |  |  | 
GATGGGTACTTCTGTT (sugars k4 d9 k3, PS) |  | 63% | 82% | 90% |  | 
GATTTTTCTTTGACCG (sugars k4 d9 k3, PS) |  | 80% and 81% | 95% and 94% | 99% and 98% |  | 
GCATTCAGAATTTCCA (sugars k2 d4 e3 k2 d5, PS) | 98 | 72% | 91% | 97% | 39 | 
GCGATTGTCTTGTTTT (sugars k4 d9 k3, PS) |  | 64% and 78% | 87% and 89% | 93% |  | 
GCTAATTTTCTGACTG (sugars kddddkekekeddddd, PS) | 88 |  |  |  |  | 
GCTAATTTTCTGACTG (sugars kkkddddkekeddddd, PS) | 93 | 42% | 70% | 87% | 10 | 
GCTTTAAACTCAGGTG (sugars kddddkekekeddddd, PS) | 67 |  |  |  |  | 
GCTTTAAACTCAGGTG (sugars kkddddkdkdkddddd, PS) | 96 | 63% | 83% | 94% | 25 | 
GGAATTATGGAATTGC (sugars k2 d4 e3 k2 d5, PS) | 99 | 38% | 84% | 96% | 8 | 
